Measured values taken from patent US20230072528A1, “METHODS FOR DISCONTINUING A TREATMENT WITH A TYROSINE KINASE INHIBITOR (TKI)” (INSERM (Institut National de la Santé et de la Recherche …, priority 2020, published 2023).

Tested on: innate CD8(+) T-cells
Assay: Ex vivo flow cytometry of peripheral blood CD8(+) T-cell subsets in CML patients under therapy (DASA-PEGIFN phase II trial)
Set-up: species or system human
Settings: for innate CD8(+) T-cell frequency (mean±SD): 3 months after initiation of therapy
Procedure: The phase II DASA-PEGIFN clinical trial was registered with EudraCT number 2012-003389-42. Briefly, newly diagnosed Ph^+ CP-CML patients were treated first-line with dasatinib at 100 mg/day. At 3 months, they were assigned to receive Peg-IFNα2b associated to dasatinib when platelets>100×109/L, neutrophils>1.5×10^9/L and lymphocytes<4.0×109/L counts were achieved. Venous blood was collected on heparin at several time points: diagnosis, 3, 6, 12 and 24 months after initiation of treatment Among the 61 patients receiving Dasatinib+Peg-IFNα2b therapy, we analysed samples from 40 patients. Two out of them were excluded for technical issues. See Table 1 for detailed patient's characteristics. Patients response to treatment were classified conforming to 2013 ELN criteria. Major molecular response was defined as a ratio of BCR-ABL1/ABL1≤0.1% on the international scale (IS). A ratio of BCR-ABL1/ABL1IS≤0.01% defined a molecular response of 4-log reduction or in our work a deep molecular response (DMR). All patients gave informed consent in accordance with the Declaration of Helsinki for participation in the study, which was approved by the scientific committee of the INSERM CIC-1402 (Poitiers, France) and Comité Protection Personnes Recherche Biomédicale Région Poitou Charentes (protocol number 12.10.31).
Peripheral blood mononuclear cells (PBMC) were isolated from blood samples by density gradient centrifugation (Histopaque®-1077, Sigma-Aldrich, St Louis, Mo., US), resuspended in 90% Fetal Bovine Serum (10270106, Gibco®, Thermo Fisher Scientific, Waltham, Mass., US) with 10% DMSO (D2650, Sigma-Aldrich), and cryopreserved at −80° C. or in liquid nitrogen until use.
Phenotypic analysis of cells from HD and CML patients was performed by ex vivo flow cytometry. All monoclonal antibodies (mAbs) used in this study are listed in Supplementary Table 2. The expression of the different markers was assessed by staining PBMC with appropriate combinations of mAbs. panKIR/NKG2A referred to staining with the mix of the three following antibodies from Miltenyi Biotec (Bergisch Gladbach, Germany) KIR2D, KIR3DL1/KIR3DL2 (CD158e/k) and NKG2A (CD159a). Dead cells were excluded using the Live/Dead® Fixable NearIR Dead Cell Stain kit (L10119, Invitrogen™, Thermo Fisher Scientific). For intranuclear Eomes staining, cells were permeabilized with anti-human Foxp3 staining kit according to the manufacturer's protocol (73-5776-40, eBioscience™, Thermo Fisher Scientific). Flow data were acquired on a FACSVerse flow cytometer (Becton, Dickinson & Compagny, Franklin Lakes, N.J., US) with FACSuite™ software (Becton, Dickinson & Compagny) and analyzed using FlowJo™ v10 (Becton, Dickinson & Compagny). Results are expressed as either percent positive cells or as mean fluorescence intensity (MFI).
Results are shown as box and whiskers with 5 percentile, median and 95 percentile unless indicated otherwise. All statistical data analyses were performed using GraphPad Prism v7.0 (GraphPad software, Inc). Wilcoxon and Mann-Whitney two-tailed test were used for paired and unpaired data analysis, respectively. A p value<0.05 was considered significant. Cumulative response rates were calculated using the cumulative incidence approach and Mantle-Cox method. The cut-off point for innate CD8(+) T-cells was optimized by receiver operating characteristics (ROC) curves and the Youden index using the logarithm of innate CD8(+) T-cell frequency at diagnosis and after 3 months of therapy. Patients were dichotomized according to their low or high percentage of innate CD8(+) T-cells. Data are presented as Kaplan-Meier curves.

[1] = after 3 months of therapy as compared to diagnosis

**Q.** With `Cc1nc(Nc2ncc(C(=O)Nc3c(C)cccc3Cl)s2)cc(N2CCN(CCO)CC2)n1` [dasatinib, N-(2-chloro-6-methylphenyl)-2-[[6-[4-(2-hydroxyethyl)-1-piperazinyl]-2-methyl-4-pyrimidinyl]amino]-5-thiazole-carboxamide monohydrate] as the compound, how does the “innate CD8(+) T-cell frequency (mean±SD)” value (M12-DMR group (DMR achieved at 12 months)) read?
**A.** 9.14±6.54%

**Q.** And the “innate CD8(+) T-cell frequency (mean±SD)” value (M12-noDMR group (no DMR at 12 months))?
**A.** 3.48±2.43%

**Q.** What about the “frequency of innate CD8(+) T-cells (mean±SD)” value (CML patients, whole group, after 3 months of therapy, among total CD8+TCR-αβ+ cells, 3.78±3.39% at diagnosis) of the same compound?
**A.** 5.98±5.43%

**Q.** What about the “Eomes and CD49d expression levels of innate CD8(+) T-cells” value [1] of the same compound?
**A.** significant increase

**Q.** And the “conventional-memory CD8(+) T-cell frequency” value [1]?
**A.** concomitantly increased

**Q.** What about the “naive CD8(+) T-cell frequency” value [1] of the same compound?
**A.** decreased
